Results: the METLIN SMRT retention time set (Domingo-Almenara et al. 2019)

Assay: gradient 5% acetonitrile 3 min, to 50% in 2 min, to 85% in 15 min, held 3 min, 100 µL/min
Conditions: column: Zorbax Extend-C18 2.1 x 50 mm; eluents: water / acetonitrile, 0.1% formic acid
Method in brief: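 Each retention time is based on an adduct peak selected computationally and verified by manual inspection. Measurements used HPLC–quadrupole time-of-flight mass spectrometry in positive and negative ionization mode on mixtures of ~100 pure standards. Chromatography ran on a Zorbax Extend-C18 column (2.1 × 50 mm, 1.8 μm) at 100 μL/min with water and acetonitrile, each containing 0.1% formic acid, and dead and dwell volumes of 40 μL and 900 μL.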

RP-LC retention time [s]	SMILES
764	CCn1c(CCc2ccccc2NS(=O)(=O)c2cc(F)ccc2F)nc2ccccc21
688	Cc1nc(-c2cccc(C(=O)N3CCN(c4nc5cccnc5o4)CC3)c2)no1
741	COc1ccccc1-c1nc(-c2ccc3ncn(C(C)C)c3c2)no1
692	CCOc1ccc(NC(=O)Cn2nc3c4sc(N(C)C)nc4ncn3c2=O)cc1
971	CCOC(=O)c1nc(Nc2ccc(F)c(Cl)c2)c2ccccc2n1
933	N#Cc1cccc(C(=O)N2CCCn3nc(-c4ccc(Cl)cc4)cc3C2)c1
738	CSc1ccc(CCNC(=O)c2ccc(CN3CC(=O)N4CCCCC4C3=O)cc2)cc1 (stereo not given)
816	CC(=O)N1CCCc2ccc(NC(=O)Cc3ccc(Cl)cc3)cc21
994	CCOc1ccc(Nc2c(-c3ccc(SC)cc3)nc3cnccn23)cc1
705	CN(C)c1ccc(Nc2nc(-c3ccccc3)cs2)cc1
747	Cc1cc(-c2nnc(-c3ccccc3)o2)c(C)n1CC(=O)Nc1cc(F)cc(F)c1
635	O=C(Cc1nc(-c2ccccn2)n[nH]1)Nc1cccc(F)c1
866	Cc1ccc(OCC(=O)Nc2ccc3c(c2)Sc2ncccc2C(=O)N3C)cc1
1050	N#Cc1ccc(C(=O)Nc2cnc(-c3cccc(Cl)c3)nc2)cc1
1220	O=C(Cc1cccs1)N1CCc2c([nH]c3ccccc23)C1c1ccc(Cl)cc1 (stereo not given)
868	CC(C)Cn1cc(CCNC(=O)c2cc(F)ccc2F)c2cccnc21
1090	Cc1onc(-c2ccccc2)c1C(=O)Nc1nc(-c2ccc(F)cc2)cs1
1150	Cc1cccc(-c2noc(Cn3ncn4nc(-c5ccc(F)cc5)cc4c3=O)n2)c1
678	Cc1ccc2oc(CN3CCN(C(=O)Nc4ccccc4)CC3)nc2c1
1110	CCN(CC)c1nc2cc(C(=O)OC)ccc2c(=O)n1-c1ccccc1
868	O=C(Nc1cc(-c2ccccn2)no1)c1ccc(Br)cc1
898	O=c1c2nc(-c3ccc(Br)cc3)cn2ccn1-c1cccc(F)c1
992	CCOC(=O)c1cccc(Nc2c(-c3ccc(Cl)cc3)nc3cnccn23)c1
1050	CCCN1C(=O)COc2ccc(-c3noc(CNC(=O)Cc4ccc(Cl)cc4)n3)cc21
1140	Cc1nc(-c2cn(C(C)C)c3ncccc23)sc1C(=O)Nc1cccc(F)c1
816	COC(=O)c1c(NCc2cccc(OC)c2)c2cc(Cl)ccc2[nH]c1=O
723	COCCNC(=O)NCc1ccc2c(c1)N(C(=O)c1ccc(C)cc1)CC2
1030	CCc1ccc(NC(=O)C(C)Oc2cc(C(F)(F)F)c3c(C)nn(C)c3n2)cc1 (stereo not given)
601	Cc1ccc2c(Nc3ccc(F)c(Cl)c3)c(C(=O)N3CCOCC3)cnc2n1
981	CCC(C)NC(=O)c1cc(-c2ccc(F)cc2)cn1C (stereo not given)

More lines, now with the values behind:

SMILES	RP-LC retention time [s]
O=C(c1cnccn1)N1CCC(N2C(=O)C(O)C23CCCCC3)CC1 (stereo not given)	590
O=C(CCC(=O)N1CCSc2ccccc21)N1CCN(c2ccccn2)CC1	618
O=C(NCc1cccs1)N1CCN(c2nc3c(F)cc(F)cc3s2)CC1	849
COC(=O)C1=C(C)N(C(C)C)C(=O)C1(NC(=O)c1cccc(OC)c1)C(F)(F)F (stereo not given)	917
CN(C)c1ncncc1N1CCC(C(=O)N2CCOCC2)CC1	567
Cc1cc(C)c(NC(=O)Cn2nc3c(Oc4ccccc4C)nccn3c2=O)c(C)c1	894
COc1cccc(N2CC(C)Cn3c2nc2c3c(=O)n(Cc3c(F)cccc3Cl)c(=O)n2C)c1 (stereo not given)	1080
O=C(NC1CCCCC1)N1CCC(CCc2nc(C3CCOCC3)no2)CC1	709
CC(=O)Nc1ccc2c(c1)CN(C(=O)c1ccc(C)cc1C)C(C(=O)N(C)C)C2 (stereo not given)	778
CCCn1c(=O)c(C)nc2cc(-c3noc(CNS(=O)(=O)c4ccccc4)n3)ccc21	853
CCN(C(=O)c1cc2c(s1)N(CCOC)CCCC2)C(C)C	1070
CN(C)CCNC(=O)c1ccc(CS(=O)(=O)c2c(Cl)cccc2Cl)o1	595
COc1ccc(N2CCN(c3cc(-c4nc(-c5ccccc5)no4)c4ccccc4n3)CC2)cc1	586
CS(=O)(=O)N(C1CCOCC1)C1CCN(C(=O)c2ccc(Cl)cc2)CC1	840
O=C(NCCN1CCCCCC1)c1cc2n(n1)CCCN(Cc1ccc(Cl)cc1)C2=O	670
CCCNC(=O)Cn1c(CC)nc2ccccc21	578
Cc1sc(NC(=O)CCC2CCCCC2)nc1-c1ccc2c(c1)NC(=O)CO2	1060
COC(=O)CSc1ccc(NC(C)=O)nn1	577
Cc1ccnc(N2CCCC(C(=O)NCC3CCN(Cc4ccc(Cl)cc4)CC3)C2)n1 (stereo not given)	624
CN1CCN(C(=O)C2CCCN(c3ncccc3-c3noc(C4CCC4)n3)C2)CC1 (stereo not given)	623

SMILES	RP-LC retention time [s]
Cc1sc2ccn(CC(C)C)c(=O)c2c1C(=O)NCc1ccccc1	930
CC(C)(C)CC(=O)N1C[C@H]2C[C@H](C1)[C@H]1CCCC(=O)N1C2	654
O=C(CC1CCCCC1)NCC(=O)Nc1nc2ccccc2[nH]1	661
COc1ccc(-c2nc(Nc3c(C)n[nH]c3C)sc2C)cc1	630
O=C(NC1CCCCCC1)C1CCN(S(=O)(=O)c2ccc(-c3noc(C4CC4)n3)cc2)CC1	836
Cn1ccc2c(cc(C(=O)NCc3cc(F)cc(F)c3)n2C)c1=O	701
Cc1cccc(N2CCN(Cc3nc4nc(C)cc(N(C)C)n4n3)CC2)c1	634
CC(=O)Nc1cc2c(cc1SC(C)C)n(C)c(=O)n2C	705
O=C1COc2ccc(S(=O)(=O)N3CCC(C(=O)Nc4ccc(OC(F)(F)F)cc4)CC3)cc2N1	909
Cc1onc(-c2c(F)cccc2Cl)c1C(=O)N1CCOCC1	727
Cc1noc(C2(NS(=O)(=O)c3ccc(C#N)cc3)CCCCC2)n1	773
CCN(Cc1ccccc1)C(=O)C(=O)c1c[nH]c2ccccc12	903
Cc1cc(C)n(-c2ccnc(N3CCC(C(=O)NCCc4ccccn4)CC3)n2)n1	575
Cc1ccc(NC(=O)CN2C(=O)CCc3cc(S(=O)(=O)N4CCCCC4C)ccc32)cc1F (stereo not given)	1010
Cc1ccc(-n2nc(N3CCN(C(=O)c4ccc(Br)o4)CC3)ccc2=O)cc1C	875
Cc1cc(C(=O)N2CCC[C@H]2c2nc(-c3ccccc3)n[nH]2)nn1C	654
COc1cc(C2OC(c3ccc(F)cc3)=NN2C(C)=O)cc(OC)c1OC (stereo not given)	902
CCC1Oc2ccc(S(=O)(=O)N3CCC(C(=O)NCc4ccccc4C)CC3)cc2NC1=O (stereo not given)	872
CC(C)N1CCN(c2ccc3nnc(C4CCC4)n3n2)CC1	548
COc1ccc(-c2nnc(-c3cccnc3NCc3cc(OC)cc(OC)c3)o2)cc1	1160

SMILES	RP-LC retention time [s]
COc1ccc(CNC(=O)C2CCN(S(=O)(=O)c3cc(-c4noc(C)n4)cs3)CC2)cc1	831
Cn1cc2c(N3CCCC3)nc(C(=O)NCCN3CCc4ccccc4C3)nc2n1	523
CS(=O)(=O)N1CCCc2cc(C(=O)NCc3ccc4c(c3)OCO4)ccc21	779
Cc1cc(C)cc(NC(=O)N2CCCC(C)(C(=O)NCc3ccccc3)C2)c1 (stereo not given)	959
CC(C)c1nc2cccnc2n1CCN1CCN(C(=O)Nc2ccc(Br)cc2F)CC1	632
CCOc1ccc(CNC(=O)c2cnc(N3CCN(C4CCCCC4)CC3)nc2N)cc1	658
O=C(c1ccc2c(c1)OCO2)N1CCC2(CC1)N(c1ccccc1)C(=O)CS2(=O)=O	685
Cc1cc2nn(CC(=O)Nc3cc(F)cc(F)c3)c(=O)n2c(Nc2ccccc2)n1	1040
CCOC(=O)CCC(=O)Nc1ncc(C#N)s1	667
CCOC(=O)C1C(=O)C(=O)N(C(C)C)C1C(=O)OCC (stereo not given)	782
CCOC(=O)c1c(C)c(CCC(=O)N2CCN(c3ccccn3)CC2)n(C)c1C	616
COc1ccc(C2C(C(=O)N3CCCC(C)C3)c3cc(OC)c(OC)cc3C(=O)N2C)cc1 (stereo not given)	817
Cc1cccc(C)c1N1CCN(C(=O)c2cccc(F)c2)CC1	1030
O=C(NCc1ccco1)C1CCCN(c2nnc3c(Cl)cccn23)C1 (stereo not given)	627
CCCCOc1ccc(-c2cc3c4nnc(CCC(=O)N5CCC(C(N)=O)CC5)n4ccn3n2)cc1	729
CCc1nn2c(N3CCN(c4cccc(C)n4)CC3)cc(C)nc2c1-c1ccccc1	1100
CN1C(=O)Cc2cc(C(=O)N3CCN(c4ccccc4F)CC3)ccc21	765
Cc1cc(C(=O)N2CCCC2c2nncn2C(C)C)n[nH]1 (stereo not given)	579
Cn1c(C2CCN(C(=O)Nc3cccc(Cl)c3F)CC2)cc(=O)n2nccc12	685
C#CCCNC(=O)c1cccn(C)c1=O	572
